Values quoted from earlier work as cited in patent US20050031575A1, “Block copolymers” (priority 2001, published 2005).

System: solid tumours
Details: micelles ranging in size from 20-60 nm that accumulate in solid tumours

poly(ethylene glycol-aspartate) block copolymer doxorubicin conjugates
antitumour activity: exhibit antitumour activity
